Measured values reported in patent publication US11161856B2 (H. Lundbeck A/S, priority 2017, dated 2021).

What was measured:
Assay type in all cases: biochemical
MAGL = target: T1, MAGL (Homo sapiens, UniProt Q99685); assay: In vitro competitive activity-based protein profiling (FP-Rh or HT-01 probe, gel-based); design: IC50 MGLL PC3 (Human, μM) / IC50 MGLL PFC (Human, μM): scale not given here; settings: for % Inh MGLL PC3 (Human, μM) / IC50 MGLL PC3 (Human, μM): PC3 cell proteome; for % Inh MGLL PC3 (Human, μM) / % Inh MGLL PFC (Human, μM): concentration not given (μM); for % Inh MGLL PFC (Human, μM): prefrontal cortex (PFC) proteome
T1 construct: Proteomes (human prefrontal cortex or cell membrane fractions); from tissue
T1 sequence (Q99685 1-303): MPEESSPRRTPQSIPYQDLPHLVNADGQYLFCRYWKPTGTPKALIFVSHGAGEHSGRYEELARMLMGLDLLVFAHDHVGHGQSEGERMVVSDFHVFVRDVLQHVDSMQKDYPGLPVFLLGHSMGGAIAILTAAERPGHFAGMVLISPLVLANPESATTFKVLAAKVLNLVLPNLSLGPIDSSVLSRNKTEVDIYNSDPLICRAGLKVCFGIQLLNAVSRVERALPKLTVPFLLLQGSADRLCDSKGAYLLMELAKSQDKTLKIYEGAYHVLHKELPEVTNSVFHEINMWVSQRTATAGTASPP
Procedure, shortened: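 Human prefrontal cortex or cell membrane proteomes (1.0 mg/mL total protein) were preincubated with varying inhibitor concentrations for 30 min at 37° C. FP-Rh or HT-01 probe (50 μM DMSO stock) was then added for 30 min at room temperature, and samples were quenched in SDS loading buffer and resolved by SDS-PAGE.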

MGLL = target: T2, MGLL (Mus musculus, UniProt O35678); assay: In vitro competitive activity-based protein profiling, mouse brain proteome (MGLL); design: IC50 MGLL Brain (Mouse, μM): scale not given here; settings: for % Inh MGLL Brain (Mouse, μM): concentration not given (μM)
T2 construct: Brain; from tissue; host or cells: mouse brain proteome
T2 sequence (O35678 1-303): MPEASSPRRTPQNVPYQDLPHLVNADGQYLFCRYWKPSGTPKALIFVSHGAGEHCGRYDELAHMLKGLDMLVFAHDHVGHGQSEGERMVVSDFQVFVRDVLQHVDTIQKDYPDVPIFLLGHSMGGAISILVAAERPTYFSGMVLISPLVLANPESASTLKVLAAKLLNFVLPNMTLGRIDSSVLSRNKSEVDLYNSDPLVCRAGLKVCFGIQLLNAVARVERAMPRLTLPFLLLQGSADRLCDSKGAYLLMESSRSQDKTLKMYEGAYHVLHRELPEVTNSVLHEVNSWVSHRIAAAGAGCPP

ABHD6 = target: T3, ABHD6 (Mus musculus, UniProt Q8R2Y0); assay: In vitro competitive activity-based protein profiling, mouse brain proteome (ABHD6); settings: mouse brain proteome; concentration not given (μM)
T3 construct: Brain; from tissue; host or cells: mouse brain proteome
T3 sequence (Q8R2Y0 1-336): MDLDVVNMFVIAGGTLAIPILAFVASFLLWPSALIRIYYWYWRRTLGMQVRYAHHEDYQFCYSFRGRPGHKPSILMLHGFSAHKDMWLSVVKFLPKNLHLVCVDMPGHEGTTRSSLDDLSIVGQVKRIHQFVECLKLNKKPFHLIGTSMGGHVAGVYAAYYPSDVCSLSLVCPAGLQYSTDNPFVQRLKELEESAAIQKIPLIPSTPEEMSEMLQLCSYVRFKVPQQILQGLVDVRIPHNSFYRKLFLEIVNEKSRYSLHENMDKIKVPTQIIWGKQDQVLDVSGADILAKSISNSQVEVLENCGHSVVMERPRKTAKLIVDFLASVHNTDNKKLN
Method: [The source words this procedure for another target and reports this target under the same test.] In Vitro Competitive Activity-Based Protein Profiling.
Proteomes (human prefrontal cortex or cell membrane fractions) (50 μL, 1.0 mg/mL total protein concentration) were preincubated with varying concentrations of inhibitors at 37° C. After 30 min, FP-Rh or HT-01 (1.0 μL, 50 μM in DMSO) was added and the mixture was incubated for another 30 min at room temperature. Reactions were quenched with SDS loading buffer (15 μL-4×) and run on SDS-PAGE.

Compound | % Inh MGLL PC3 (Human, μM) (MAGL) | % Inh MGLL Brain (Mouse, μM) (MGLL) | % Inh ABHD6 Brain (Mouse, μM) (ABHD6) | % Inh MGLL PFC (Human, μM) (MAGL) | IC50 MGLL Brain (Mouse, μM) (MGLL) | IC50 MGLL PC3 (Human, μM) (MAGL)
CN(Cc1ccc(C(F)(F)F)cc1OCC(=O)O)C1(C)CCN(C(=O)OC(C(F)(F)F)C(F)(F)F)CC1 [Example 136, 2-(2-(((1-(((1,1,1,3,3,3-Hexafluoropropan-2-yl)oxy)carbonyl)-4-methylpiperidin-4-yl)(methyl)amino)methyl)-5-(trifluoromethyl)phenoxy)acetic acid] | ### (### is ≥75%) | ### (### is ≥75%) | # (# is ≤25%) |  |  | 
CC1(C(=O)O)CCN(c2cc(C(F)(F)F)ccc2CN2CC3(CCN(C(=O)OC(C(F)(F)F)C(F)(F)F)CC3)C2)C1 (stereo not drawn) [Example 115, l-(2-((7-(((1,1,1,3,3,3-Hexafluoropropan-2-yl)oxy)carbonyl)-2,7-diazaspiro[3,5]nonan-2-yl)methyl)-5-(trifluoromethyl)phenyl)-3-methylpyrrolidine-3-carboxylic acid] |  | ### (### is ≥75%) | # (# is ≤25%) | ### (### is ≥75%) |  | 
O=C(O)C1CCN(c2cc(C(F)(F)F)ccc2CN2CC3(CCN(C(=O)OC(C(F)(F)F)C(F)(F)F)CC3)C2)CC1 [Example 102, l-(2-((7-(((U,l,3,3,3-Hexafluoropropan-2-yl)oxy)carbonyl)-2,7-diazaspiro[3.5]nonan-2-yl)methyl)-5-(trifluoromethyl)phenyl)piperi-dine-4-carboxylic acid] |  | ### (### is ≥75%) | ### (### is ≥75%) | ### (### is ≥75%) |  | 
O=C(OC(C(F)(F)F)C(F)(F)F)N1CCC2(CCCN2C(=O)c2ccc(Cl)cc2)CC1 [Example 13, 1,1,1,3,3,3-Hexafluoropropan-2-yl 1-(4-chlorobenzoyl)-1,8-diazaspiro[4.5]decane-8-carboxylate] |  | ### (### is ≥75%) | ### (### is ≥75%) | ### (### is ≥75%) | * * * | 
CC(C)(C#Cc1c(Cl)cccc1CN1CCCC12CCN(C(=O)OC(C(F)(F)F)C(F)(F)F)CC2)C(=O)O [Example 1, 4-(2-Chloro-6-((8-(((1,1,1,3,3,3-hexafluoropropan-2-yl)oxy)carbonyl)-1,8-diazaspiro[4.5]decan-1-yl)methyl)phenyl)-2,2-dimethylbut-3-ynoic acid] | ### (### is ≥75%) | ### (### is ≥75%) | # (# is ≤25%) |  |  | 
O=C(OC(C(F)(F)F)C(F)(F)F)N1CCC2(CC1)CCN(C(=O)c1ccc(C(F)(F)F)c(Cl)c1)C2 [Example 109, 1,1,1,3,3,3-Hexafluoropropan-2-yl 2-(3-chloro-4-(trifluoromethyl)benzoyl)-2,8-diazaspiro[4.5]decane-8-carboxylate] |  | ### (### is ≥75%) | ### (### is ≥75%) | ### (### is ≥75%) |  | 
O=C(O)CN1CC2(CCN(c3cc(C(F)(F)F)ccc3CN3CCCC34CCN(C(=O)OC(C(F)(F)F)C(F)(F)F)CC4)CC2)C1 [Example 157, 2-(7-(2-((8-(((1,1,1,3,3,3-Hexafluoropropan-2-yl)oxy)carbonyl)-1,8-diazaspiro[4.5]decan-1-yl)methyl)-5-(trifluoromethyl)phenyl)-2,7-diazaspiro[3.5]nonan-2-yl)acetic acid] |  | ### (### is ≥75%) | # (# is ≤25%) | ### (### is ≥75%) |  | 
CC(C)(C#Cc1cc(C(F)(F)F)ccc1CN1CCCC12CCN(C(=O)OC(C(F)(F)F)C(F)(F)F)CC2)C(=O)O [Example 5, 4-(2-((8-(((1,1,1,3,3,3-Hexafluoropropan-2-yl)oxy)carbonyl)-1,8-diazaspiro[4.5]decan-1-yl)methyl)-5-(trifluoromethyl)phenyl)-2,2-dimethylbut-3-ynoic acid] | ### (### is ≥75%) | ### (### is ≥75%) | # (# is ≤25%) |  |  | * * *
O=C(O)C1CCN(c2cc(C(F)(F)F)ccc2CN2CC3(CCN(C(=O)OC(C(F)(F)F)C(F)(F)F)CC3)C2)C1 (stereo not drawn) [Example 101, l-(2-((7-(((1,1,1,3,3,3-Hexafluoropropan-2-yl)oxy)carbonyl)-2,7-diazaspiro[3,5]nonan-2-yl)methyl)-5-(trifluoromethyl)phenyl)pyrroli-dine-3-carboxylic acid] |  | ### (### is ≥75%) | ### (### is ≥75%) | ### (### is ≥75%) |  | 
O=C(O)c1cc(CN2CC3(CCN(C(=O)OC(C(F)(F)F)C(F)(F)F)CC3)C2)ccc1C(F)(F)F [Example 21, 5-((7-(((1,1,1,3,3,3-Hexafluoropropan-2-yl)oxy)carbonyl)-2,7-diazaspiro[3.5]nonan-2-yl)methyl)-2-(trifluoromethyl)benzoic acid] |  | ### (### is ≥75%) | ### (### is ≥75%) | ### (### is ≥75%) |  | * * *
CC1(C(=O)O)CCCN(c2cc(C(F)(F)F)ccc2CN2CC3(CCN(C(=O)OC(C(F)(F)F)C(F)(F)F)CC3)C2)C1 (stereo not drawn) [Example 112, l-(2-((7-(((1,1,1,3,3,3-Hexafluoropropan-2-yl)oxy)carbonyl)-2,7-diazaspiro[3.5]nonan-2-yl)methyl)-5-(trifluoromethyl)phenyl)-3-methylpiperidine-3-carboxylic acid] |  | ### (### is ≥75%) | ## (## is between 25 and 75%) | ### (### is ≥75%) |  | 
CC1(C(=O)O)CN(c2cc(C(F)(F)F)ccc2CN2CC3(CCN(C(=O)OC(C(F)(F)F)C(F)(F)F)CC3)C2)CCO1 (stereo not drawn) [Example 130, 4-(2-((7-(((1,1,1,3,3,3-Hexafluoropropan-2-yl)oxy)carbonyl)-2,7-diazaspiro[3.5]nonan-2-yl)methyl)-5-(trifluoromethyl)phenyl)-2-methylmorpholine-2-carboxylic acid] |  | ### (### is ≥75%) | # (# is ≤25%) | ### (### is ≥75%) |  | 
O=C(O)C1CCN(c2cc(CN3CC4(CCN(C(=O)OC(C(F)(F)F)C(F)(F)F)CC4)C3)cc(C(F)(F)F)c2)CC1 [Example 99, 1-(3-((7-(((1,1,1,3,3,3-Hexafluoropropan-2-yl)oxy)carbonyl)-2,7-diazaspiro[3.5]nonan-2-yl)methyl)-5-(trifluoromethyl)phenyl)piperi-dine-4-carboxylic acid] |  | ### (### is ≥75%) | ### (### is ≥75%) | ### (### is ≥75%) |  | 
O=C(O)CN1CC2CC1CN2c1cc(C(F)(F)F)ccc1CN1CC2(CCN(C(=O)OC(C(F)(F)F)C(F)(F)F)CC2)C1 (stereo not drawn) [Example 127, 2-(5-{2-[(7-{[(1,1,1,3,3,3-Hexafluoropropan-2-yl)oxy]carbonyl}-2,7-diazaspiro[3.5]nonan-2-yl)methyl]-5-(trifluoromethyl)phenyl}-2,5-diazabicyclo[2.2.1]heptan-2-yl)acetic acid] |  | ### (### is ≥75%) | ### (### is ≥75%) | ### (### is ≥75%) |  | 
